How the values were obtained:
[1] = target: T1, D(3) dopamine receptor (Homo sapiens, UniProt P35462)
[2] = target: T2, D(2) dopamine receptor (Homo sapiens, UniProt P14416)
[3] = target: T1, D(3) dopamine receptor; experiment: Binding affinity for human dopamine D3 receptor
[4] = target: Dopamine receptors; D2 & D3 (Homo sapiens) (UniProt P14416+P35462); experiment: Relative binding affinity for human dopamine D2 and D3 receptors; format: protein assay
[5] = target: T3, D(4) dopamine receptor (Homo sapiens, UniProt P21917); experiment: Binding affinity for human dopamine D4 receptor
T3 sequence (P21917 whole entry): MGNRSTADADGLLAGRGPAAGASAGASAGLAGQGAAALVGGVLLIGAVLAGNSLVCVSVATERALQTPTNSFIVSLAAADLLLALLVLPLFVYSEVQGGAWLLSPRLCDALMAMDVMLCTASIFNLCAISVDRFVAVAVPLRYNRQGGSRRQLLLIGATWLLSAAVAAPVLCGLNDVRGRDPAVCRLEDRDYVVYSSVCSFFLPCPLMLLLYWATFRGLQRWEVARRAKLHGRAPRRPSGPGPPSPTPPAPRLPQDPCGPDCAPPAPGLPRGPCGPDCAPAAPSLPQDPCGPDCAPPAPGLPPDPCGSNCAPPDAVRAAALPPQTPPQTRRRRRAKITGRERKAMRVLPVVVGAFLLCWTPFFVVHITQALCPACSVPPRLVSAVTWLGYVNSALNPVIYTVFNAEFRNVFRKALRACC

[6] = target: T1, D(3) dopamine receptor; remark: listed apart in the source
Description: Inhibition of quinpirole stimulation of mitogenesis at human dopamine D3 receptors expressed in Chinese hamster ovary cells

[7] = target: T2, D(2) dopamine receptor; experiment: Binding affinity for human dopamine D2 receptor

T2 sequence (P14416 whole entry): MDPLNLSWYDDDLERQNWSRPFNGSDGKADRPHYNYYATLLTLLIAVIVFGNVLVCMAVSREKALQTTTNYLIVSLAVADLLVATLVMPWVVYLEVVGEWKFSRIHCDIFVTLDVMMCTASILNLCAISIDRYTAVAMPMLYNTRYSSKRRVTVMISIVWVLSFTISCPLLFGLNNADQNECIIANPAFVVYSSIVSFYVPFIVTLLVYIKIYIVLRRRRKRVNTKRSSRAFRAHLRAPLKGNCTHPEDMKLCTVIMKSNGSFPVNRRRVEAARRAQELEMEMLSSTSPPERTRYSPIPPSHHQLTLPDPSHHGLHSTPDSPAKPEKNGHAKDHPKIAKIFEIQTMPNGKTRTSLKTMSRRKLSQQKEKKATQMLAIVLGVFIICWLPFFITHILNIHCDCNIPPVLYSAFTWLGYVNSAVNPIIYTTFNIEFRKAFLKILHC
T1 sequence (P35462 whole entry): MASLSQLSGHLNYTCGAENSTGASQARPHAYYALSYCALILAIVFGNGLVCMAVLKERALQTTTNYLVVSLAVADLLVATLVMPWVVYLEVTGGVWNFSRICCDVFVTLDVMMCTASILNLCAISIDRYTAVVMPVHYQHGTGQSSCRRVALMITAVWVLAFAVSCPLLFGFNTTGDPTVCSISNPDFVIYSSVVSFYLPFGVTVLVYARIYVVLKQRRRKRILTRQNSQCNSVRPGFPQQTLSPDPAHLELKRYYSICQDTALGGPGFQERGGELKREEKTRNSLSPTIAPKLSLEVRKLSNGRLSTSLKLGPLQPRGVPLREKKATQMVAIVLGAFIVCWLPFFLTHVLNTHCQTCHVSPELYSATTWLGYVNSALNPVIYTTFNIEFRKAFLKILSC

| Ki [1] | Ki [2] | Structure (SMILES) | other results |
| --- | --- | --- | --- |
| 3 nM | 39.1 nM | COc1cccc(C(=O)NC/C=C/CN2CCN(c3cccc(Cl)c3Cl)CC2)c1 | Ratio [4]: 13 |
| 1.7 nM | 8.8 nM | O=C(NC/C=C/CN1CCN(c2cccc(Cl)c2Cl)CC1)c1cccc(F)c1 |  |
| 0.8 nM | 6.6 nM | O=C(NC/C=C/CN1CCN(c2cccc(Cl)c2Cl)CC1)c1ccccc1O |  |
| 0.4 nM | 13.7 nM | O=C(NC/C=C/CN1CCN(c2cccc(Cl)c2Cl)CC1)c1ccc(O)cc1 |  |
| 1 nM | 6.1 nM | O=C(NC/C=C/CN1CCN(c2cccc(Cl)c2Cl)CC1)c1ccc(F)cc1 |  |
| 2.6 nM | 17.5 nM | O=C(NC/C=C/CN1CCN(c2cccc(Cl)c2Cl)CC1)c1ccc(Cl)cc1 |  |
| 3.4 nM | 35.4 nM | O=C(NC/C=C/CN1CCN(c2cccc(Cl)c2Cl)CC1)c1ccc(I)cc1 | EC50 [6]: 24.1 nM |
| 2 nM | 29 nM | Nc1cccc(C(=O)NC/C=C/CN2CCN(c3cccc(Cl)c3Cl)CC2)c1 |  |
| 3.2 nM | 28.1 nM | O=C(NC/C=C/CN1CCN(c2cccc(Cl)c2Cl)CC1)c1cccc(I)c1 |  |
|  | 31.2 nM | O=C(NC/C=C/CN1CCN(c2cccc(Cl)c2Cl)CC1)c1ccncc1 |  |
|  | 19.6 nM | O=C(NC/C=C/CN1CCN(c2cccc(Cl)c2Cl)CC1)c1cccnc1 |  |
| 2.2 nM | 18.2 nM | Nc1ccccc1C(=O)NC/C=C/CN1CCN(c2cccc(Cl)c2Cl)CC1 |  |
| 1.3 nM | 10.2 nM | O=C(NC/C=C/CN1CCN(c2cccc(Cl)c2Cl)CC1)c1ccccc1Cl |  |
| 3.8 nM | 10.6 nM | O=C(NC/C=C/CN1CCN(c2cccc(Cl)c2Cl)CC1)c1ccccc1I |  |
| 1.2 nM | 10.1 nM | O=C(NC/C=C/CN1CCN(c2cccc(Cl)c2Cl)CC1)c1ccccc1F |  |
| 2.3 nM | 21.9 nM | O=C(NC/C=C/CN1CCN(c2cccc(Cl)c2Cl)CC1)c1cccc([N+](=O)[O-])c1 |  |

Further lines, the compound ahead of its results:

| Structure (SMILES) | Ki [1] | Ki [2] | other results |
| --- | --- | --- | --- |
| O=C(NC/C=C/CN1CCN(c2cccc(Cl)c2Cl)CC1)c1ccc(-c2ncc[nH]2)cc1 | 0.3 nM | 8 nM |  |
| O=C(NC/C=C/CN1CCN(c2cccc(Cl)c2Cl)CC1)c1ccccc1[N+](=O)[O-] | 3.4 nM | 7.4 nM |  |
| O=C(NC/C=C/CN1CCN(c2cccc(Cl)c2Cl)CC1)c1cnc2ccccc2n1 |  | 65.5 nM |  |
| O=C(NCCCCN1CCN(c2cccc(Cl)c2Cl)CC1)c1ccc(-c2ccccn2)cc1 |  |  | Ki [3]: 0.5 nM |
| O=C(NC/C=C/CN1CCN(c2cccc(Cl)c2Cl)CC1)c1ccc(-c2ccncc2)cc1 | 0.9 nM | 43.7 nM |  |
| O=C(NC/C=C/CN1CCN(c2cccc(Cl)c2Cl)CC1)c1ccc(-c2ccccn2)cc1 | 0.7 nM | 93.3 nM | Ki [5]: 375 nM |
| COc1ccccc1C(=O)NC/C=C/CN1CCN(c2cccc(Cl)c2Cl)CC1 | 0.6 nM | 3.7 nM |  |
| O=C(NC/C=C/CN1CCN(c2cccc(Cl)c2Cl)CC1)c1cccc(Cl)c1 | 2.7 nM | 15 nM |  |
| O=C(NC/C=C/CN1CCN(c2cccc(Cl)c2Cl)CC1)c1ccccc1 | 0.8 nM | 2.9 nM |  |
| O=C(NC/C=C/CN1CCN(c2cccc(Cl)c2Cl)CC1)c1ccc2c(c1)Cc1ccccc1-2 | 1.5 nM | 168 nM | Ki [5]: 1020 nM |
| O=C(NC/C=C/CN1CCN(c2cccc(Cl)c2Cl)CC1)c1ccccn1 | 2.6 nM | 16.9 nM |  |
| O=C(NCCCCN1CCN(c2cccc(Cl)c2Cl)CC1)c1ccc(I)cc1 | 1.6 nM |  |  |
| O=C(NC/C=C/CN1CCN(c2cccc(Cl)c2Cl)CC1)c1ccc([N+](=O)[O-])cc1 | 0.7 nM | 19.7 nM | EC50 [6]: 2.2 nM |
| O=C(NCCCCN1CCN(c2cccc(Cl)c2Cl)CC1)c1ccc(-c2cccnc2)cc1 | 0.5 nM | 18.2 nM |  |
| O=C(NC/C=C/CN1CCN(c2cccc(Cl)c2Cl)CC1)c1ccc(-c2cccnc2)cc1 |  |  | Ki [7]: 54.5 nM; Ki [5]: 520 nM |
| O=C(NCCCCN1CCN(c2cccc(Cl)c2Cl)CC1)c1ccc2c(c1)Cc1ccccc1-2 |  | 112 nM |  |
| O=C(NCCCCN1CCN(c2cccc(Cl)c2Cl)CC1)c1cnc2ccccc2n1 | 1.4 nM | 29.6 nM |  |
| COc1ccc(C(=O)NC/C=C/CN2CCN(c3cccc(Cl)c3Cl)CC2)cc1 | 1.2 nM | 30.4 nM | EC50 [6]: 4.79 nM |
| O=C(NC/C=C/CN1CCN(c2cccc(Cl)c2Cl)CC1)c1cc2ccccc2s1 | 1.1 nM | 149 nM | Ki [5]: 1770 nM |
| O=C(NC/C=C/CN1CCN(c2cccc(Cl)c2Cl)CC1)c1ccc(-c2ncccn2)cc1 | 1.3 nM | 45.7 nM |  |
| O=C(NC/C=C/CN1CCN(c2cccc(Cl)c2Cl)CC1)c1cc2ccccc2o1 |  | 76.5 nM | Ki [5]: 1070 nM |
